Measured values as given in ChEMBL document CHEMBL3352089 (J Med Chem, 2014).

How the values were obtained:
Assay type in all cases: cell-based
Conditions in all cases: read-out: Activity
[1] = Cytotoxicity against human HepG2 cells assessed as cell viability at 10 uM after 4 hrs by Cell-Titer Glo assay
[2] = Cytotoxicity against human HepG2 cells assessed as cell viability at 100 uM after 4 hrs by Cell-Titer Glo assay
[3] = Cytotoxicity against human HepG2 cells assessed as cell viability at 1 uM after 24 hrs by Cell-Titer Glo assay
[4] = Cytotoxicity against human HepG2 cells assessed as cell viability at 1 uM after 4 hrs by Cell-Titer Glo assay
[5] = Cytotoxicity against human HepG2 cells assessed as cell viability at 10 uM after 24 hrs by Cell-Titer Glo assay
[6] = Cytotoxicity against human HepG2 cells assessed as cell viability at 100 uM after 24 hrs by Cell-Titer Glo assay

CNc1ncc(-c2ccc(N3CCNCC3)cc2)cc1-c1cc(OC)c(OC)c(OC)c1
> 75%: viability at 4 h, 10 µM [1] | viability at 4 h, 100 µM [2] | viability at 24 h, 1 µM [3] | viability at 4 h, 1 µM [4] | viability at 24 h, 10 µM [5]

COc1cc(-c2cc(-c3cccc(NS(C)(=O)=O)c3)cnc2N)cc(OC)c1OC
> 75%: viability at 4 h, 10 µM [1] | viability at 4 h, 100 µM [2] | viability at 24 h, 1 µM [3] | viability at 24 h, 100 µM [6] | viability at 4 h, 1 µM [4] | viability at 24 h, 10 µM [5]

CC(C)Oc1cccc(-c2cc(-c3ccc(N4CCNCC4)cc3)cnc2N)c1
> 75%: viability at 4 h, 10 µM [1] | viability at 24 h, 1 µM [3] | viability at 4 h, 1 µM [4] | viability at 24 h, 10 µM [5]

Nc1ncc(-c2ccc(N3CCNCC3)cc2)cc1-c1ccnc2ccccc12
> 75%: viability at 4 h, 10 µM [1] | viability at 4 h, 100 µM [2] | viability at 24 h, 1 µM [3] | viability at 4 h, 1 µM [4] | viability at 24 h, 10 µM [5]

Nc1ncc(-c2ccc(N3CCNCC3)cc2)cc1-c1ccc2c(c1)OCCO2
> 75%: viability at 4 h, 10 µM [1] | viability at 4 h, 100 µM [2] | viability at 24 h, 1 µM [3] | viability at 4 h, 1 µM [4] | viability at 24 h, 10 µM [5]

C#Cc1cccc(Nc2ncnc3cc(OCCOC)c(OCCOC)cc23)c1 [ERLOTINIB]
> 75%: viability at 4 h, 10 µM [1] | viability at 4 h, 100 µM [2] | viability at 24 h, 1 µM [3] | viability at 24 h, 100 µM [6] | viability at 4 h, 1 µM [4] | viability at 24 h, 10 µM [5]

Cc1ccc(Nc2nccc(N(C)c3ccc4c(C)n(C)nc4c3)n2)cc1S(N)(=O)=O [PAZOPANIB]
> 75%: viability at 4 h, 10 µM [1] | viability at 4 h, 100 µM [2] | viability at 24 h, 1 µM [3] | viability at 24 h, 100 µM [6] | viability at 4 h, 1 µM [4] | viability at 24 h, 10 µM [5]

COc1cc(-c2cc(-c3ccc(N4CCNCC4)cc3)cnc2N)ccc1Cl
> 75%: viability at 4 h, 10 µM [1] | viability at 24 h, 1 µM [3] | viability at 4 h, 1 µM [4] | viability at 24 h, 10 µM [5]

COc1cc(-c2cc(-c3cccc(N4CCNCC4)c3)cnc2N)cc(OC)c1OC
> 75%: viability at 4 h, 10 µM [1] | viability at 4 h, 100 µM [2] | viability at 24 h, 1 µM [3] | viability at 4 h, 1 µM [4] | viability at 24 h, 10 µM [5]

c1cc(-c2cnn3cc(-c4ccc(N5CCNCC5)cc4)cnc23)c2cccnc2c1
> 75%: viability at 4 h, 10 µM [1] | viability at 4 h, 100 µM [2] | viability at 24 h, 1 µM [3] | viability at 4 h, 1 µM [4] | viability at 24 h, 10 µM [5]

N#CC[C@H](C1CCCC1)n1cc(-c2ncnc3[nH]ccc23)cn1 [RUXOLITINIB]
> 75%: viability at 4 h, 10 µM [1] | viability at 4 h, 100 µM [2] | viability at 24 h, 1 µM [3] | viability at 4 h, 1 µM [4] | viability at 24 h, 10 µM [5]

C[C@@H](Oc1cc(-c2cnn(C3CCNCC3)c2)cnc1N)c1c(Cl)ccc(F)c1Cl [CRIZOTINIB]
> 75%: viability at 4 h, 10 µM [1] | viability at 24 h, 1 µM [3] | viability at 4 h, 1 µM [4] | viability at 24 h, 10 µM [5]

c1ccc2c(-c3cnn4cc(-c5ccc(N6CCNCC6)cc5)cnc34)ccnc2c1
> 75%: viability at 4 h, 10 µM [1] | viability at 24 h, 1 µM [3] | viability at 4 h, 1 µM [4]

CCCS(=O)(=O)Nc1ccc(F)c(C(=O)c2c[nH]c3ncc(-c4ccc(Cl)cc4)cc23)c1F [VEMURAFENIB]
> 75%: viability at 4 h, 10 µM [1] | viability at 4 h, 100 µM [2] | viability at 24 h, 1 µM [3] | viability at 4 h, 1 µM [4] | viability at 24 h, 10 µM [5]

COc1cc(OC)cc(-c2cc(-c3ccc(N4CCNCC4)cc3)cnc2N)c1
> 75%: viability at 4 h, 10 µM [1] | viability at 24 h, 1 µM [3] | viability at 4 h, 1 µM [4] | viability at 24 h, 10 µM [5]

Cc1cn(-c2cc(NC(=O)c3ccc(C)c(Nc4nccc(-c5cccnc5)n4)c3)cc(C(F)(F)F)c2)cn1 [NILOTINIB]
> 75%: viability at 4 h, 10 µM [1] | viability at 4 h, 100 µM [2] | viability at 24 h, 1 µM [3] | viability at 24 h, 100 µM [6] | viability at 4 h, 1 µM [4] | viability at 24 h, 10 µM [5]

CNC(=O)c1cc(Oc2ccc(NC(=O)Nc3ccc(Cl)c(C(F)(F)F)c3)cc2)ccn1 [SORAFENIB]
> 75%: viability at 4 h, 10 µM [1] | viability at 4 h, 100 µM [2] | viability at 24 h, 1 µM [3] | viability at 4 h, 1 µM [4] | viability at 24 h, 10 µM [5]

COc1cccc(-c2cc(-c3ccc(N4CCNCC4)cc3)cnc2N)c1
> 75%: viability at 4 h, 10 µM [1] | viability at 4 h, 100 µM [2] | viability at 24 h, 1 µM [3] | viability at 4 h, 1 µM [4] | viability at 24 h, 10 µM [5]

COc1cc(-c2cc(-c3ccc(N4CCNCC4)cc3)cnc2OC)cc(OC)c1OC
> 75%: viability at 4 h, 10 µM [1] | viability at 24 h, 1 µM [3] | viability at 4 h, 1 µM [4] | viability at 24 h, 10 µM [5]

COc1cc(-c2cc(-c3ccc(N4CCNCC4)cc3)cnc2Cl)cc(OC)c1OC
> 75%: viability at 4 h, 10 µM [1] | viability at 4 h, 100 µM [2] | viability at 24 h, 1 µM [3] | viability at 4 h, 1 µM [4] | viability at 24 h, 10 µM [5]

COc1cc(-c2cnn3cc(-c4ccc(N5CCNCC5)cc4)cnc23)cc(OC)c1OC
> 75%: viability at 4 h, 10 µM [1] | viability at 24 h, 1 µM [3] | viability at 4 h, 1 µM [4]

COc1ccc(-c2cc(-c3ccc(N4CCNCC4)cc3)cnc2N)cc1
> 75%: viability at 4 h, 10 µM [1] | viability at 24 h, 1 µM [3] | viability at 4 h, 1 µM [4] | viability at 24 h, 10 µM [5]

Nc1ncc(-c2ccc(N3CCNCC3)cc2)cc1-c1cccc2ncccc12
> 75%: viability at 4 h, 10 µM [1] | viability at 4 h, 100 µM [2] | viability at 24 h, 1 µM [3] | viability at 4 h, 1 µM [4] | viability at 24 h, 10 µM [5]

Cc1nc(Nc2ncc(C(=O)Nc3c(C)cccc3Cl)s2)cc(N2CCN(CCO)CC2)n1 [DASATINIB]
> 75%: viability at 4 h, 10 µM [1] | viability at 24 h, 1 µM [3] | viability at 4 h, 1 µM [4]

COc1cc(-c2cc(-c3ccc(O)cc3)cnc2N)cc(OC)c1OC
> 75%: viability at 4 h, 10 µM [1] | viability at 4 h, 100 µM [2] | viability at 24 h, 1 µM [3] | viability at 24 h, 100 µM [6] | viability at 4 h, 1 µM [4] | viability at 24 h, 10 µM [5]

COc1cc2ncnc(Nc3ccc(F)c(Cl)c3)c2cc1OCCCN1CCOCC1 [GEFITINIB]
> 75%: viability at 4 h, 10 µM [1] | viability at 4 h, 100 µM [2] | viability at 24 h, 1 µM [3] | viability at 24 h, 100 µM [6] | viability at 4 h, 1 µM [4] | viability at 24 h, 10 µM [5]

Nc1ncc(-c2cccc(N3CCNCC3)c2)cc1-c1ccnc2ccccc12
> 75%: viability at 4 h, 10 µM [1] | viability at 24 h, 1 µM [3] | viability at 4 h, 1 µM [4] | viability at 24 h, 10 µM [5]

COc1cc(OC)cc(-c2cncc(-c3ccc(N4CCNCC4)cc3)c2)c1
> 75%: viability at 4 h, 10 µM [1] | viability at 24 h, 1 µM [3] | viability at 4 h, 1 µM [4] | viability at 24 h, 10 µM [5]

CCN(CC)CCNC(=O)c1c(C)[nH]c(/C=C2\C(=O)Nc3ccc(F)cc32)c1C [SUNITINIB]
> 75%: viability at 4 h, 10 µM [1] | viability at 24 h, 1 µM [3] | viability at 4 h, 1 µM [4]

COc1cc(-c2cc(-c3ccc(N4CCNCC4)cc3)cnc2N(C)C)cc(OC)c1OC
> 75%: viability at 4 h, 10 µM [1] | viability at 4 h, 100 µM [2] | viability at 24 h, 1 µM [3] | viability at 4 h, 1 µM [4] | viability at 24 h, 10 µM [5]

CS(=O)(=O)CCNCc1ccc(-c2ccc3ncnc(Nc4ccc(OCc5cccc(F)c5)c(Cl)c4)c3c2)o1 [LAPATINIB]
> 75%: viability at 4 h, 10 µM [1] | viability at 4 h, 100 µM [2] | viability at 24 h, 1 µM [3] | viability at 24 h, 100 µM [6] | viability at 4 h, 1 µM [4] | viability at 24 h, 10 µM [5]

COc1cc(-c2cc(-c3ccc(N4CCNCC4)cc3)cnc2N)ccc1C
> 75%: viability at 4 h, 10 µM [1] | viability at 24 h, 1 µM [3] | viability at 4 h, 1 µM [4] | viability at 24 h, 10 µM [5]

COc1ccc(-c2cc(-c3ccc(N4CCNCC4)cc3)cnc2N)cc1OC
> 75%: viability at 4 h, 10 µM [1] | viability at 4 h, 100 µM [2] | viability at 24 h, 1 µM [3] | viability at 4 h, 1 µM [4] | viability at 24 h, 10 µM [5]
